# What was measured:
# HCT116 cells = assay: Cytotoxicity (cell viability) of niclosamide; assay type: cell-based; conditions: Homo sapiens, HCT-116, 24 h, 95% CI 1.87 to 2.92 μM
# Method: To determine an applicable niclosamide concentration, the cytotoxicity of niclosamide on HCT116 cells was analyzed. […] No change in S100A4 expression could be detected with concentrations below 1 μM niclosamide.
# All calculations and statistical analyses were performed with GraphPad Prism version 4.01. Student t test was used for comparison of only two groups. One-way analysis of variance (ANOVA) was applied for comparing the control group with several treated groups followed by Bonferroni post hoc multiple comparisons. […] Kaplan-Meier analysis was used to plot overall survival and differences in curves were analyzed by Logrank test. […]
# (A) Determination of the cytotoxicity of niclosamide on HCT116 cells. Cells were treated with increasing concentrations of niclosamide for 24 hours and cell viability was measured. […] S100A4 expression was determined by quantitative reverse-transcription-polymerase chain reaction (qRT-PCR) and immunoblot. […] HCT116 cells were treated with a single dose of 1 μM niclosamide for 24 hours and S100A4 expression was analyzed by qRT-PCR and immunoblot at indicated time points. […] HCT116 cells were treated daily with 1 μM niclosamide and S100A4 expression was analyzed by qRT-PCR and immunoblot. […]
# S100A4 mRNA = S100A4 mRNA expression by qRT-PCR in colon cancer cells; assay type: cell-based, human
# Method: Total RNA was isolated from 4×10^5 cells plated in a 6-well-plates 24 hour before cells were lyzed with Trizol Reagent (Invitrogen). RNA was extracted with Trizol RNA extraction reagent (Invitrogen) according to the manufacturer's instructions. Quantification of the RNA concentration was performed with Nanodrop (Peqlab) and 50 ng total RNA was reverse transcribed with random hexamers in 10 mM MgCl2; 1× RT-buffer, 250 μM pooled dNTPs, 1 U per μL RNAse inhibitor and 2.5 U per μL MuLV reverse transcriptase (all Applied Biosystems). Reaction occurred at 42° C. for 15 minutes, 99° C. for 5 minutes and subsequent cooling at 5° C. for 5 minutes. The cDNA product was amplified in a total volume of 10 μL in 96-well-plates in the LightCycler 480 (Roche) using the following conditions: 95° C., 10 minutes, followed by 45 cycles of 95° C. for 10 seconds, 61° C. for 30 seconds and 72° C. for 4 seconds. For S100A4 cDNA quantification the following primer and probes were used: forward primer 5′-CTCAGCGCTTCTTCTTTC-3′, reverse primer 5′-GGGTCAGCAGCTCCTTTA-3′, fluorescein isothiocyanate probe 5′-[…]-3′, LCRed640-probe 5′-[…]-3′. For cDNA quantification of the housekeeping gene glucose-6-phosphate dehydrogenase (G6PD) the hG6PDH Roche Kit (Roche Diagnostics, Mannheim, Germany) was used according to manufacturers instructions. Data analysis was performed with LightCycler® 480 Software release 1.5.0 SP3. For each qRT-PCR reaction a mean of the duplicate was calculated. Each mean value of the expressed gene was normalized to the respective mean amount of the G6PD cDNA.
# (A) Determination of the cytotoxicity of niclosamide on HCT116 cells. Cells were treated with increasing concentrations of niclosamide for 24 hours and cell viability was measured. (B) Effect of increasing concentrations of niclosamide on S100A4 expression. HCT116 cells were treated with increasing concentrations of niclosamide for 24 hours. S100A4 expression was determined by quantitative reverse-transcription-polymerase chain reaction (qRT-PCR) and immunoblot. (C) Time-dependency of niclosamide effect on S100A4 expression. HCT116 cells were treated with a single dose of 1 μM niclosamide for 24 hours and S100A4 expression was analyzed by qRT-PCR and immunoblot at indicated time points. Black bar indicates the chosen treatment conditions for further experiments. (D) Effect of daily doses of niclosamide on S100A4 expression. HCT116 cells were treated daily with 1 μM niclosamide and S100A4 expression was analyzed by qRT-PCR and immunoblot. Data is given as mean±SD (n>2). Differences in treated groups were compared with the control group by two-sided one-way analysis of variances and Bonferroni post hoc multiple comparison test.
# (E) Effect of niclosamide in HCT116-vector and HCT116-S100A4 cells. HCT116-vector and HCT116-S100A4 cells were treated with 1 μM niclosamide for 24 hours and S100A4 expression was analyzed by qRT-PCR and immunoblot. Data is given as mean±SD (n>2). Comparison of niclosamide vs. solvent-treated cells was analyzed with Student's t test.
# (A) S100A4 expression under niclosamide treatment. Cells were treated with 1 μM niclosamide for 24 hours. S100A4 expression was analyzed with qRT-PCR and immunoblot. (B) Cell migration under niclosamide treatment. Migration rates of cells treated with 1 μM niclosamide for 24 hours were determined in a Boyden chamber assay values were normalized to solvent-treated SW620 cells. (C) Cell invasion under niclosamide treatment. Cells were seeded onto Matrigel covered transwells and treated with 1 μM niclosamide for 24 hours. Invaded cells in the lower chamber were counted and normalized to solvent-treated SW620 cells. Differences in solvent vs. niclosamide-treated cells were analyzed by Student's t test. Data represent mean±SE of at least two independent experiments each performed in triplicate. (D) Directed migration under niclosamide treatment. Wounds of 300 μM width were set in a 60% confluent monolayer of cells on day 1. […]
structure (smiles),measurement,setting,value
"O=C(Nc1ccc([N+](=O)[O-])cc1Cl)c1cc(Cl)ccc1O [niclosamide, 2′,5-dichloro-4′-nitrosalicylanilide]",EC50,HCT116 cells,2200 nM
same,S100A4 mRNA,"S100A4 mRNA; DLD-1, 1 μM, 24 h, mRNA barely detectable",remained unchanged
same,"S100A4 mRNA expression, mean difference control vs niclosamide","S100A4 mRNA; HAB-68mut, 1 μM, 24 h",0.55
same,"S100A4 mRNA expression, mean (relative to HCT116 control)","S100A4 mRNA; HAB-68mut, 1 μM, 24 h, control 1.17",0.62
same,"S100A4 mRNA expression, mean (relative to HCT116 control)","S100A4 mRNA; HAB-92 wt, 1 μM, 24 h, control 0.03, statistically not significant",0.01
same,"S100A4 mRNA expression, mean difference control vs niclosamide","S100A4 mRNA; HAB-92 wt, 1 μM, 24 h, statistically not significant",0.02
same,"S100A4 mRNA, mean %","S100A4 mRNA; HCT116, 1 μM daily for 3 days, 24 hours post-treatment, control 101.9%",58.0%
same,"S100A4 mRNA, mean %","S100A4 mRNA; HCT116, 1 μM daily for 3 days, 48 hours post-treatment, control 98.1%",44.4%
same,"S100A4 mRNA, mean %","S100A4 mRNA; HCT116, 1 μM daily for 3 days, 72 hours post-treatment, control 100.0%",57.9%
same,"S100A4 mRNA, mean % of solvent-treated control","S100A4 mRNA; HCT116, 1 μM daily, 24 hours",46.0%
same,"S100A4 mRNA, mean % of solvent-treated control","S100A4 mRNA; HCT116, 1 μM daily, 48 hours",44.5%
same,"S100A4 mRNA, mean % of solvent-treated control","S100A4 mRNA; HCT116, 1 μM daily, 72 hours",59.5%
same,"S100A4 mRNA expression, mean difference control vs niclosamide","S100A4 mRNA; HCT116, 1 μM, 24 h (relative scale)",0.54
same,"S100A4 mRNA expression, mean (relative to HCT116 control)","S100A4 mRNA; HCT116, 1 μM, 24 h, control 1.00",0.46
same,"S100A4 mRNA, mean % of solvent-treated control","S100A4 mRNA; HCT116, 1 μM, single dose, 18 hours",47.5%
same,"S100A4 mRNA, mean % of solvent-treated control","S100A4 mRNA; HCT116, 1 μM, single dose, 24 h",47.4%
same,S100A4 mRNA and protein levels,"S100A4 mRNA; HCT116, 1 μM, single dose, after 30-48 hours",returned to the control level
same,"S100A4 mRNA, mean % of solvent-treated control","S100A4 mRNA; HCT116, 1.5 μM, 24 h",39.2%
same,"S100A4 mRNA, mean % of solvent-treated control","S100A4 mRNA; HCT116, 2 μM, 24 h",39.1%
same,"S100A4 mRNA, mean % of solvent-treated control","S100A4 mRNA; HCT116, 2.5 μM, 24 h",36.7%
same,"S100A4 mRNA, mean difference control vs niclosamide","S100A4 mRNA; HCT116, 24 hours post-treatment",43.9%
same,"S100A4 mRNA, mean difference control vs niclosamide","S100A4 mRNA; HCT116, 48 hours post-treatment",53.7%
same,"S100A4 mRNA, mean difference control vs niclosamide","S100A4 mRNA; HCT116, 72 hours post-treatment",42.1%
same,change in S100A4 expression,"S100A4 mRNA; HCT116, concentrations below 1 μM, 24 h",No change
same,"S100A4 mRNA, mean difference control vs niclosamide","S100A4 mRNA; HCT116-S100A4, 1 μM, 24 h, not statistically significant",104.7%
same,"S100A4 mRNA, mean %","S100A4 mRNA; HCT116-S100A4, 1 μM, 24 h, solvent control 717.0%, not statistically significant",612.3%
same,"S100A4 mRNA, mean % of solvent-treated control","S100A4 mRNA; HCT116-vector, 1 μM, 24 h",57.8%
same,"S100A4 mRNA, mean difference control vs niclosamide","S100A4 mRNA; HCT116-vector, 1 μM, 24 h",42.0%
same,"S100A4 mRNA, mean difference control vs niclosamide","S100A4 mRNA; LS174T, 1 μM, 24 h",51.9%
same,"S100A4 mRNA, mean %","S100A4 mRNA; LS174T, 1 μM, 24 h, solvent control 65.5%",13.5%
same,"S100A4 mRNA, mean difference control vs niclosamide","S100A4 mRNA; SW480, 1 μM, 24 h",35.0%
same,"S100A4 mRNA, mean %","S100A4 mRNA; SW480, 1 μM, 24 h, solvent control 41.0%",6.0%
same,"S100A4 mRNA, mean difference control vs niclosamide","S100A4 mRNA; SW620, 1 μM, 24 h",68.8%
same,"S100A4 mRNA, mean %","S100A4 mRNA; SW620, 1 μM, 24 h, solvent control 100.0%",31.2%

# — patent US11331290B2, “Niclosamide for the treatment of cancer metastasis” (Max-Delbrück-Centrum für Molekulare Medizin in der …, priority 2011, dated 2022)
